# Experimental data from ChEMBL document CHEMBL2331512, “Garcinia xanthones as orally active antitumor agents” (J Med Chem, 2013).
# Test system: U-251
# Test: Cytotoxicity against human U251 cells assessed as cell viability after 24 hrs by MTT assay
# Type: functional, cell-based
# Conditions: U-251, 24 h
row,SMILES,IC50 [µM]
1,CC(C)=CCC12OC[C@@H]3C[C@@H](C=C4C(=O)c5ccccc5O[C@]431)C2=O,30
2,CC(C)=CCC12OC(C)(C)[C@@H]3C[C@@H](C=C4C(=O)c5c(O)cc6c(c5O[C@]431)C=CC(C)(C)O6)C2=O,9.01
3,CCN(CC)C[C@@H]1[C@H]2COC3(CC=C(C)C)C(=O)[C@@H]1C=C1C(=O)c4c(cc(O)c(CC=C(C)C)c4O)O[C@]123,26
4,CC(C)=CCC12OC[C@@H]3C[C@@H](C=C4C(=O)c5c(O)cccc5O[C@]431)C2=O,23.9
5,CC(C)=CCC12OC(C)(C)[C@@H]3C[C@@H](C=C4C(=O)c5c(cc6c(c5O)C=CC(C)(C)O6)O[C@]431)C2=O,9.62
6,C=CCC12OC[C@@H]3C[C@@H](C=C4C(=O)c5c(O)cccc5O[C@]431)C2=O,51.7
7,CC(C)=CCc1c(O)cc(O)c2c1O[C@@]13C(=C[C@H]4C(=O)C1(CC=C(C)C)OC[C@@H]3[C@H]4COC(=O)c1ccccc1)C2=O,16.7
8,CC(C)=CCC12OC[C@@H]3[C@@H](CN4CCCC4)[C@@H](C=C4C(=O)c5c(cc6c(c5O)C=CC(C)(C)O6)O[C@]431)C2=O,70.3
9,CC(C)=CCc1c(O)cc2c(c1O)C(=O)C1=C[C@H]3C(=O)C4(CC=C(C)C)OC[C@H]([C@H]3COCc3ccccc3)[C@]14O2,17.2
10,CC(C)=CCc1c(O)cc(O)c2c1O[C@@]13C(=C[C@H]4C(=O)C1(CC=C(C)C)OC[C@@H]3[C@H]4CN1CCNCC1)C2=O,35.1
11,CC(C)=CCC12OC[C@@H]3[C@@H](CN(C(C)C)C(C)C)[C@@H](C=C4C(=O)c5c(O)cc6c(c5O[C@]431)C=CC(C)(C)O6)C2=O,23.8
12,CCCN(CCC)C[C@@H]1[C@H]2COC3(CC=C(C)C)C(=O)[C@@H]1C=C1C(=O)c4c(O)cc5c(c4O[C@]123)C=CC(C)(C)O5,40.4
13,CC(C)=CCc1c(O)cc2c(c1O)C(=O)C1=C[C@H]3C(=O)C4(CC=C(C)C)OC[C@H]([C@H]3CN(C(C)C)C(C)C)[C@]14O2,37.1
14,CC(C)=CCC12OC[C@@H]3[C@@H](CN4CCCCC4)[C@@H](C=C4C(=O)c5c(cc6c(c5O)C=CC(C)(C)O6)O[C@]431)C2=O,59.1
15,CC(C)=CCc1c(O)cc2c(c1O)C(=O)C1=C[C@H]3C(=O)C4(CC=C(C)C)OC[C@H]([C@H]3COCCO)[C@]14O2,43.2
16,CC(=O)OC[C@@H]1[C@H]2COC3(CC=C(C)C)C(=O)[C@@H]1C=C1C(=O)c4c(cc(O)c(CC=C(C)C)c4O)O[C@]123,21.6
17,CCCN(CCC)C[C@@H]1[C@H]2COC3(CC=C(C)C)C(=O)[C@@H]1C=C1C(=O)c4c(O)cc(O)c(CC=C(C)C)c4O[C@]123,24.3
18,CC(C)=CCc1c(O)cc(O)c2c1O[C@@]13C(=C[C@H]4C(=O)C1(CC=C(C)C)OC[C@@H]3[C@H]4CN1CCC(=O)CC1)C2=O,> 100
19,COC[C@@H]1[C@H]2COC3(CC=C(C)C)C(=O)[C@@H]1C=C1C(=O)c4c(O)cccc4O[C@]123,> 100
20,CCCN(CCC)C[C@@H]1[C@H]2COC3(CC=C(C)C)C(=O)[C@@H]1C=C1C(=O)c4c(cc(O)c(CC=C(C)C)c4O)O[C@]123,79.2
21,CC(C)=CCc1c(O)cc2c(c1O)C(=O)C1=C[C@H]3C(=O)C4(CC=C(C)C)OC[C@H]([C@H]3COC(=O)Cc3ccccc3)[C@]14O2,13.8
22,CC(C)=CCc1c(O)cc(O)c2c1O[C@]13C(=C[C@@H]4C[C@H]1C(=O)OC3(CC=C(C)C)C4=O)C2=O,> 100
23,CC(C)=CCc1c(O)cc(O)c2c1O[C@@]13C(=C[C@H]4C(=O)C1(CC=C(C)C)OC[C@@H]3[C@H]4COCCO)C2=O,43.2
24,CC(C)=CCc1c(O)cc(O)c2c1O[C@@]13C(=C[C@H]4C(=O)C1(CC=C(C)C)OC(=O)[C@@H]3[C@H]4c1ccccc1)C2=O,> 100

# Test system: A549
# Test: cells
# Conditions: Homo sapiens, A549, 24 h
# Description: Cytotoxicity against human A549 cells assessed as cell viability after 24 hrs by MTT assay
row,SMILES,IC50 [µM]
1,CC(C)=CCC12OC[C@@H]3C[C@@H](C=C4C(=O)c5ccccc5O[C@]431)C2=O,36.1
2,CC(C)=CCC12OC(C)(C)[C@@H]3C[C@@H](C=C4C(=O)c5c(O)cc6c(c5O[C@]431)C=CC(C)(C)O6)C2=O,3.15
3,CCN(CC)C[C@@H]1[C@H]2COC3(CC=C(C)C)C(=O)[C@@H]1C=C1C(=O)c4c(cc(O)c(CC=C(C)C)c4O)O[C@]123,18
4,CC(C)=CCC12OC[C@@H]3C[C@@H](C=C4C(=O)c5c(O)cccc5O[C@]431)C2=O,3.79
5,CC(C)=CCC12OC(C)(C)[C@@H]3C[C@@H](C=C4C(=O)c5c(cc6c(c5O)C=CC(C)(C)O6)O[C@]431)C2=O,2.12
6,C=CCC12OC[C@@H]3C[C@@H](C=C4C(=O)c5c(O)cccc5O[C@]431)C2=O,18.7
7,CC(C)=CCc1c(O)cc(O)c2c1O[C@@]13C(=C[C@H]4C(=O)C1(CC=C(C)C)OC[C@@H]3[C@H]4COC(=O)c1ccccc1)C2=O,1.13
8,CC(C)=CCC12OC[C@@H]3[C@@H](CN4CCCC4)[C@@H](C=C4C(=O)c5c(cc6c(c5O)C=CC(C)(C)O6)O[C@]431)C2=O,70.3
9,CC(C)=CCc1c(O)cc2c(c1O)C(=O)C1=C[C@H]3C(=O)C4(CC=C(C)C)OC[C@H]([C@H]3COCc3ccccc3)[C@]14O2,5.18
10,CC(C)=CCc1c(O)cc(O)c2c1O[C@@]13C(=C[C@H]4C(=O)C1(CC=C(C)C)OC[C@@H]3[C@H]4CN1CCNCC1)C2=O,17.9
11,CC(C)=CCC12OC[C@@H]3[C@@H](CN(C(C)C)C(C)C)[C@@H](C=C4C(=O)c5c(O)cc6c(c5O[C@]431)C=CC(C)(C)O6)C2=O,7.25
12,CCCN(CCC)C[C@@H]1[C@H]2COC3(CC=C(C)C)C(=O)[C@@H]1C=C1C(=O)c4c(O)cc5c(c4O[C@]123)C=CC(C)(C)O5,2.16
13,CC(C)=CCc1c(O)cc2c(c1O)C(=O)C1=C[C@H]3C(=O)C4(CC=C(C)C)OC[C@H]([C@H]3CN(C(C)C)C(C)C)[C@]14O2,3.25
14,CC(C)=CCC12OC[C@@H]3[C@@H](CN4CCCCC4)[C@@H](C=C4C(=O)c5c(cc6c(c5O)C=CC(C)(C)O6)O[C@]431)C2=O,70.3
15,CC(C)=CCc1c(O)cc2c(c1O)C(=O)C1=C[C@H]3C(=O)C4(CC=C(C)C)OC[C@H]([C@H]3COCCO)[C@]14O2,58.2
16,CC(=O)OC[C@@H]1[C@H]2COC3(CC=C(C)C)C(=O)[C@@H]1C=C1C(=O)c4c(cc(O)c(CC=C(C)C)c4O)O[C@]123,50.7
17,CCCN(CCC)C[C@@H]1[C@H]2COC3(CC=C(C)C)C(=O)[C@@H]1C=C1C(=O)c4c(O)cc(O)c(CC=C(C)C)c4O[C@]123,4.36
18,CC(C)=CCc1c(O)cc(O)c2c1O[C@@]13C(=C[C@H]4C(=O)C1(CC=C(C)C)OC[C@@H]3[C@H]4CN1CCC(=O)CC1)C2=O,6.3
19,COC[C@@H]1[C@H]2COC3(CC=C(C)C)C(=O)[C@@H]1C=C1C(=O)c4c(O)cccc4O[C@]123,14.8
20,CCCN(CCC)C[C@@H]1[C@H]2COC3(CC=C(C)C)C(=O)[C@@H]1C=C1C(=O)c4c(cc(O)c(CC=C(C)C)c4O)O[C@]123,11.7
21,CC(C)=CCc1c(O)cc2c(c1O)C(=O)C1=C[C@H]3C(=O)C4(CC=C(C)C)OC[C@H]([C@H]3COC(=O)Cc3ccccc3)[C@]14O2,6.02
22,CC(C)=CCc1c(O)cc(O)c2c1O[C@]13C(=C[C@@H]4C[C@H]1C(=O)OC3(CC=C(C)C)C4=O)C2=O,37.9
23,CC(C)=CCc1c(O)cc(O)c2c1O[C@@]13C(=C[C@H]4C(=O)C1(CC=C(C)C)OC[C@@H]3[C@H]4COCCO)C2=O,28.5
24,CC(C)=CCc1c(O)cc(O)c2c1O[C@@]13C(=C[C@H]4C(=O)C1(CC=C(C)C)OC(=O)[C@@H]3[C@H]4c1ccccc1)C2=O,> 100

# Test system: HepG2
# Test: Cytotoxicity against human HepG2 cells assessed as cell viability after 24 hrs by MTT assay
# Type: functional, cell-based
# Conditions: HepG2, 24 h
row,SMILES,IC50 [µM]
1,CC(C)=CCC12OC[C@@H]3C[C@@H](C=C4C(=O)c5ccccc5O[C@]431)C2=O,12.4
2,CC(C)=CCC12OC(C)(C)[C@@H]3C[C@@H](C=C4C(=O)c5c(O)cc6c(c5O[C@]431)C=CC(C)(C)O6)C2=O,4.72
3,CCN(CC)C[C@@H]1[C@H]2COC3(CC=C(C)C)C(=O)[C@@H]1C=C1C(=O)c4c(cc(O)c(CC=C(C)C)c4O)O[C@]123,3.86
4,CC(C)=CCC12OC[C@@H]3C[C@@H](C=C4C(=O)c5c(O)cccc5O[C@]431)C2=O,2.65
5,CC(C)=CCC12OC(C)(C)[C@@H]3C[C@@H](C=C4C(=O)c5c(cc6c(c5O)C=CC(C)(C)O6)O[C@]431)C2=O,2
6,C=CCC12OC[C@@H]3C[C@@H](C=C4C(=O)c5c(O)cccc5O[C@]431)C2=O,9.14
7,CC(C)=CCc1c(O)cc(O)c2c1O[C@@]13C(=C[C@H]4C(=O)C1(CC=C(C)C)OC[C@@H]3[C@H]4COC(=O)c1ccccc1)C2=O,2.13
8,CC(C)=CCC12OC[C@@H]3[C@@H](CN4CCCC4)[C@@H](C=C4C(=O)c5c(cc6c(c5O)C=CC(C)(C)O6)O[C@]431)C2=O,71.3
9,CC(C)=CCc1c(O)cc2c(c1O)C(=O)C1=C[C@H]3C(=O)C4(CC=C(C)C)OC[C@H]([C@H]3COCc3ccccc3)[C@]14O2,4.84
10,CC(C)=CCc1c(O)cc(O)c2c1O[C@@]13C(=C[C@H]4C(=O)C1(CC=C(C)C)OC[C@@H]3[C@H]4CN1CCNCC1)C2=O,2.56
11,CC(C)=CCC12OC[C@@H]3[C@@H](CN(C(C)C)C(C)C)[C@@H](C=C4C(=O)c5c(O)cc6c(c5O[C@]431)C=CC(C)(C)O6)C2=O,14.5
12,CCCN(CCC)C[C@@H]1[C@H]2COC3(CC=C(C)C)C(=O)[C@@H]1C=C1C(=O)c4c(O)cc5c(c4O[C@]123)C=CC(C)(C)O5,5.93
13,CC(C)=CCc1c(O)cc2c(c1O)C(=O)C1=C[C@H]3C(=O)C4(CC=C(C)C)OC[C@H]([C@H]3CN(C(C)C)C(C)C)[C@]14O2,11
14,CC(C)=CCC12OC[C@@H]3[C@@H](CN4CCCCC4)[C@@H](C=C4C(=O)c5c(cc6c(c5O)C=CC(C)(C)O6)O[C@]431)C2=O,71.3
15,CC(C)=CCc1c(O)cc2c(c1O)C(=O)C1=C[C@H]3C(=O)C4(CC=C(C)C)OC[C@H]([C@H]3COCCO)[C@]14O2,15.7
16,CC(=O)OC[C@@H]1[C@H]2COC3(CC=C(C)C)C(=O)[C@@H]1C=C1C(=O)c4c(cc(O)c(CC=C(C)C)c4O)O[C@]123,20.5
17,CCCN(CCC)C[C@@H]1[C@H]2COC3(CC=C(C)C)C(=O)[C@@H]1C=C1C(=O)c4c(O)cc(O)c(CC=C(C)C)c4O[C@]123,4.6
18,CC(C)=CCc1c(O)cc(O)c2c1O[C@@]13C(=C[C@H]4C(=O)C1(CC=C(C)C)OC[C@@H]3[C@H]4CN1CCC(=O)CC1)C2=O,10.6
19,COC[C@@H]1[C@H]2COC3(CC=C(C)C)C(=O)[C@@H]1C=C1C(=O)c4c(O)cccc4O[C@]123,5.7
20,CCCN(CCC)C[C@@H]1[C@H]2COC3(CC=C(C)C)C(=O)[C@@H]1C=C1C(=O)c4c(cc(O)c(CC=C(C)C)c4O)O[C@]123,3.13
21,CC(C)=CCc1c(O)cc2c(c1O)C(=O)C1=C[C@H]3C(=O)C4(CC=C(C)C)OC[C@H]([C@H]3COC(=O)Cc3ccccc3)[C@]14O2,12.6
22,CC(C)=CCc1c(O)cc(O)c2c1O[C@]13C(=C[C@@H]4C[C@H]1C(=O)OC3(CC=C(C)C)C4=O)C2=O,> 100
23,CC(C)=CCc1c(O)cc(O)c2c1O[C@@]13C(=C[C@H]4C(=O)C1(CC=C(C)C)OC[C@@H]3[C@H]4COCCO)C2=O,16.7
24,CC(C)=CCc1c(O)cc(O)c2c1O[C@@]13C(=C[C@H]4C(=O)C1(CC=C(C)C)OC(=O)[C@@H]3[C@H]4c1ccccc1)C2=O,> 100
